EP4509511A1, “SUBSTITUTED SPIRO-ISOXAZOLINYL LACTAMS, SALTS THEREOF AND THEIR USE AS HERBICIDALLY ACTIVE SUBSTANCES” (Bayer Aktiengesellschaft, priority 2023, dated 2025)

Tests used:
[1] = test system: STEME; assay: Herbicidal pre-emergence action - Part I; assay type: in vivo, Stellaria media; details: visual grading after ca. 3 weeks vs untreated controls
How it was run: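 Seeds are sown and covered with sandy loam soil, one monocot and one dicot weed species per pot. The test compound (WP or EC, 0.5% additive, 600 l/ha) is then applied to the soil surface at up to 1280 g/ha. Pots are kept in a greenhouse and injury is rated visually after ca. 3 weeks.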

[2] = test system: AMARE; assay: Herbicidal post-emergence action - Part I; assay type: in vivo, Amaranthus retroflexus; details: one-leaf stage, rated visually after about 3 weeks vs untreated controls
How it was run: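 Activity was scored visually as % damage (100% = dead, 0% = like untreated) about 3 weeks after treatment. Plants at the one-leaf stage, 2-3 weeks old, were sprayed with WP/EC formulations plus 0.5% additive (600 L/ha water, up to 1280 g/ha). Plants were grown in sandy loam in a greenhouse.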

[3] = test system: BRSNW; assay: Pre-emergence effects on crop plants; assay type: in vivo, Brassica napus; details: 80 g/ha; Table D5; crop plant
Description: (§1) Seeds of mono- and dicotyledonous weed plants and crop plants were sown, in plastic or organic planting pots, in sandy loam and covered with soil. The compounds according to the invention, formulated in the form of wettable powders (WP) or as emulsifiable concentrates (EC), were applied to the surface of the covering soil as aqueous suspension or emulsion, with the addition of 0.5% of an additive, at an application rate of 600 1 of water/ha (converted). Following treatment, the pots were placed in a greenhouse and kept under optimum growth conditions for the test plants. The visual grading of the damage to the test plants was carried out after ca. 3 weeks in comparison to untreated controls (herbicidal effect in percent (%): 100% effect = plants have died off, 0% effect = as control plants). Tables D1 to D5 below show the effects of various compounds of the general formula (I) according to Table 1 on various crop plants and an application rate corresponding to 320 g/ha or below obtained by the experimental procedure mentioned above in Biological Examples, Section C. Table […]: pre-emergence activity at 320g/ha against ZEAMX in %

[4] = test system: LOLRI; assay: Herbicidal pre-emergence action - Part II; assay type: in vivo, Lolium rigidum; details: 320 g/ha; Table C7
Description: (§2) Seeds of mono- and dicotyledonous weed plants and crop plants were sown, in plastic or organic planting pots, in sandy loam and covered with soil. The compounds according to the invention, formulated in the form of wettable powders (WP) or as emulsifiable concentrates (EC), were applied to the surface of the covering soil as aqueous suspension or emulsion, with the addition of 0.5% of an additive, at an application rate of 600 1 of water/ha (converted). Following treatment, the pots were placed in a greenhouse and kept under optimum growth conditions for the test plants. The visual grading of the damage to the test plants was carried out after ca. 3 weeks in comparison to untreated controls (herbicidal effect in percent (%): 100% effect = plants have died off, 0% effect = as control plants). Tables C1 to C12 below show the effects of selected compounds of the general formula (I) according to table 1 on various harmful plants and an application rate corresponding to 320 g/ha or below obtained by the experimental procedure mentioned above. Table C1: pre-emergence activity at 320g/ha against ABUTH in %

[5] = test system: MATIN; assay: Herbicidal pre-emergence action - Part I; assay type: in vivo, Matricaria inodora; details: visual grading after ca. 3 weeks vs untreated controls
Description: (§3) Seeds of mono- and dicotyledonous weed plants were sown in plastic pots (double sowings with one species of mono- and one species of dicotyledonous weed plants per pot), in sandy loam, and covered with soil. The compounds according to the invention, formulated in the form of wettable powders (WP) or as emulsifiable concentrates (EC), were applied to the surface of the covering soil as aqueous suspension or emulsion, with the addition of 0.5% of an additive, at an application rate of 600 1 of water per hectare (converted). Following treatment, the pots were placed in a greenhouse and kept under optimum growth conditions for the test plants. The visual grading of the damage to the test plants was carried out after ca. 3 weeks in comparison to untreated controls (herbicidaleffectinpercent(%):100%effect=plantshavediedoff,0%effect=ascontrolplants). [formula]
(§4) Tables A1 to A12, below, show the effects of selected compounds of the general formula (I) according to table 1 on various harmful plants and an application rate corresponding to 1280 g/ha or below obtained by the experimental procedure mentioned above. Table A1: pre-emergence activity at 1280g/ha against ABUTH in %

[6] = test system: VERPE; assay: Herbicidal pre-emergence action - Part I; assay type: in vivo, Veronica persica; details: visual grading after ca. 3 weeks vs untreated controls
Description: as §3, §4

[7] = test system: ECHCG; assay: Herbicidal pre-emergence action - Part II; assay type: in vivo, Echinochloa crus-galli
Description: as §2

[8] = test system: ORYZA; assay: Pre-emergence effects on crop plants; assay type: in vivo, Oryza sativa; details: crop plant
Description: as §1

[9] = test system: SETVI; assay: Herbicidal pre-emergence action - Part I; assay type: in vivo, Setaria viridis; details: visual grading after ca. 3 weeks vs untreated controls
Description: as §3, §4

[10] = test system: AMARE; assay: Herbicidal pre-emergence action - Part II; assay type: in vivo, Amaranthus retroflexus; details: visual grading after ca. 3 weeks vs untreated controls
Description: as §2

[11] = test system: TRZAS; assay: Pre-emergence effects on crop plants; assay type: in vivo, Triticum aestivum; details: crop plant
Description: as §1

[12] = test system: ZEAMX; assay: Pre-emergence effects on crop plants; assay type: in vivo, Zea mays; details: crop plant
Description: as §1

[13] = test system: GLXMA; assay: Pre-emergence effects on crop plants; assay type: in vivo, Glycine max; details: crop plant
Description: as §1

[14] = test system: SETVI; assay: Herbicidal pre-emergence action - Part II; assay type: in vivo, Setaria viridis
Description: as §2

[15] = test system: POAAN; assay: Herbicidal post-emergence action - Part I; assay type: in vivo, Poa annua; details: 1280 g/ha, one-leaf stage, rated visually after about 3 weeks vs untreated controls
Description: (§5) Seeds of mono- and dicotyledonous weed plants were placed in plastic pots in sandy loam soil (doubly sown with in each case one species of mono- or dicotyledonous weed plants per pot), covered with soil and cultivated in a greenhouse under controlled growth conditions. 2 to 3 weeks after sowing, the test plants were treated at the one-leaf stage. The compounds of the invention, formulated in the form of wettable powders (WP) or as emulsion concentrates (EC), were applied onto the green parts of the plants as aqueous suspension or emulsion with addition of 0.5% additive at a water application rate of 600 liters per hectare (converted). After the test plants had been kept in the greenhouse under optimum growth conditions for about 3 weeks, the activity of the preparations was rated visually in comparison to untreated controls. For example, 100% activity = the plants have died, 0% activity = like control plants. Tables B1 to B12, below, show the effects of selected compounds of the general formula (I) according to table 1 on various harmful plants and an application rate corresponding to 1280 g/ha or below obtained by the experimental procedure mentioned above. Table B1a: post-emergence activity at 1280g/ha against ABUTH in %

[16] = test system: ALOMY; assay: Herbicidal post-emergence action - Part I; assay type: in vivo, Alopecurus myosuroides; details: one-leaf stage, rated visually after about 3 weeks vs untreated controls
Description: as §5

[17] = test system: ALOMY; assay: Herbicidal pre-emergence action - Part I; assay type: in vivo, Alopecurus myosuroides; details: visual grading after ca. 3 weeks vs untreated controls
Description: as §3, §4

| Compound | pre-emergence activity at 320g/ha against STEME in % [1] | pre-emergence activity at 1280g/ha against STEME in % [1] | post-emergence activity at 1280g/ha against AMARE in % [2] | pre-emergence activity against BRSNW [3] | pre-emergence activity against LOLRI [4] | pre-emergence activity at 320g/ha against MATIN in % [5] | pre-emergence activity at 1280g/ha against MATIN in % [5] | pre-emergence activity at 1280g/ha against VERPE in % [6] | pre-emergence activity against ECHCG ([7]; 320 g/ha, Table C6a) | pre-emergence activity against ORYZA ([8]; 80 g/ha, Table D3b) | pre-emergence activity at 320g/ha and against SETVI in % [9] | pre-emergence activity at 1280g/ha and against SETVI in % [9] | pre-emergence activity at 320g/ha against AMARE in % [10] | pre-emergence activity against TRZAS ([11]; 80 g/ha, Table D2b) | pre-emergence activity against ZEAMX ([12]; 80 g/ha, Table D1b) | pre-emergence activity against ZEAMX ([12]; 320 g/ha, Table D1a) | pre-emergence activity against GLXMA ([13]; 80 g/ha, Table D4b) | pre-emergence activity against SETVI ([14]; 320 g/ha, Table C10a) | post-emergence activity at 1280g/ha against POAAN in % [15] | pre-emergence activity at 1280g/ha against ALOMY in % [17] | also measured |
| --- | --- | --- | --- | --- | --- | --- | --- | --- | --- | --- | --- | --- | --- | --- | --- | --- | --- | --- | --- | --- | --- |
| O=C1N(Cc2ccccc2F)CCC12CC(c1c(F)cccc1F)=NO2 (racemic) [Compound I-10] | 90% | 90% | 90% | 20% | 80% | 90% | 90% | 90% | 90% | 0% | 90% | 100% | 80% | 0% | 0% | 0% | 10% | 90% |  |  | post-emergence activity at 80g/ha against AMARE in % ([2]; 80 g/ha): 90%; post-emergence activity at 320g/ha against AMARE in % ([2]; 320 g/ha): 90% |
| Cc1ccsc1C1=NOC2(CCCN(Cc3c(F)cccc3F)C2=O)C1 (racemic) [Compound I-2] | 90% | 90% | 90% |  | 90% | 90% | 90% |  | 100% | 0% | 100% | 100% | 90% | 0% | 0% | 0% | 0% | 100% | 90% | 90% | pre-emergence activity at 80g/ha against STEME in % ([1]; 80 g/ha): 90%; post-emergence activity at 1280g/ha against ALOMY in % [16]: 90%; pre-emergence activity against ECHCG ([7]; 80 g/ha, Table C6b): 90%; pre-emergence activity at 80g/ha and against SETVI in % ([9]; 80 g/ha): 100%; pre-emergence activity against SETVI ([14]; 80 g/ha, Table C10b): 100% |
| Cc1ccsc1C1=NOC2(CCN(Cc3c(F)cccc3F)C2=O)C1 (racemic) [Compound I-16, 7-(2,6-Difluorobenzyl)-3-(3-methyl-2-thienyl)-1-oxa-2,7-diazaspiro[4.4]non-2-en-6-one] |  | 90% |  | 20% | 100% | 90% | 90% | 100% | 90% | 0% | 100% | 100% | 80% | 10% | 10% | 20% | 10% | 90% | 90% | 90% | pre-emergence activity against ORYZA ([8]; Table D3a, title: 320g/ha, application rate: 80 g/ha): 20%; pre-emergence activity against TRZAS ([11]; Table D2a, title: 320g/ha, application rate: 80 g/ha): 10%; pre-emergence activity against GLXMA ([13]; Table D4a, title: 320g/ha, application rate: 80 g/ha): 20% |
